Measured values published in article PMC9304066, “H2S biogenesis by cystathionine beta-synthase: mechanism of inhibition by aminooxyacetic acid and unexpected role of serine” (Cellular and Molecular Life Sciences: CMLS, 2022).
“And” between values parts separate entries of the source, which are not always exact repeats. Identical values can stand only once.

How the values were obtained:
[1] = target: T1, tScCBS (Saccharomyces cerevisiae, UniProt P32582); test: Fluorescence emission titration of tScCBS (PLP excitation at 410 nm); format: binding; settings: tScCBS 1 mg/mL, pH 8.5; decrease in emission at 520 nm, excitation 410 nm; read-out: Dissociation constant Kd (fluorescence)
T1 construct: 6xHis (C); made in house
T1 sequence (P32582 1-345): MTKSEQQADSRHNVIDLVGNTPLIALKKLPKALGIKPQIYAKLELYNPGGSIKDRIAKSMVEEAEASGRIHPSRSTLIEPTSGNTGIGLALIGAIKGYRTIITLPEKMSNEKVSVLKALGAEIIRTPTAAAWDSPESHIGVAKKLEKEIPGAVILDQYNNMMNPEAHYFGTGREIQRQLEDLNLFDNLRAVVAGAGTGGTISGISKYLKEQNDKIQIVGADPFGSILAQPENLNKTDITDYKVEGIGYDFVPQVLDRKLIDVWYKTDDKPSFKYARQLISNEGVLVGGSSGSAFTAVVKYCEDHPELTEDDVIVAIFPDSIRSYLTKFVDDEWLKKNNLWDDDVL
Procedure: (§1) CBS enzymes. Recombinant truncated Saccharomyces cerevisiae CBS lacking the C-terminal regulatory domain (residues 346–507) and carrying the C-terminal 6xHis tag (tScCBS) was prepared as described previously. Engineered recombinant Homo sapiens CBS lacking a loop protruding from the central β-strand of the CBS2 domain corresponding to the residues 516–525 (HsCBS; described in detail in [21]) was purchased from GenScript.
(§2) UV − Vis and fluorescence spectroscopy. Absorption spectra were collected on a Tecan Infinite M200 Pro spectrophotometer in a buffer containing 50 mM Tris–HCl pH 8.5, 20 mM NaCl and 0.5 mM tris(2-carboxyethyl)phosphine (TCEP). All the spectra were carried out with a protein concentration of 1 mg/mL with a 1 cm path-length quartz cuvette in a total volume of 150 µL. tScCBS was titrated directly in a cuvette by successive additions of different concentrations of AOAA, Ser and Cys, respectively, and spectra were recorded between 240 and 600 nm after an incubation time of 3 min at RT. Fluorescence emission spectra were collected under the same conditions upon PLP excitation at 410 nm. Blank spectra were subtracted from sample spectra.

[2] = target: T1, tScCBS; test: CBS H2S production assay (AzMC fluorometric), tScCBS; format: biochemical; settings: tScCBS; AzMC assay
Procedure: (§3) CBS H2S production assay. H2S-producing activity of CBS, utilizing Cys and Hcy, was determined using a fluorometric assay employing the H2S-selective fluorescent probe 7-azido-4-methylcoumarin (AzMC) as described previously. The reaction mixture in a total volume of 200 µL contained 50 mM Tris–HCl pH 8.6, 5 μM PLP, 2 mM Hcy, 10 μM AzMC and 500 ng tScCBS or HsCBS. The plate was incubated for 10 min at 37°C and the enzymatic activity was triggered by adding 0–50 mM Cys. The fluorescence of the mixtures at 450 nm (excited at 365 nm) was followed for 2 h at 37°C. All measurements were performed in triplicates using Tecan Infinite 200 PRO microplate reader. Kinetic data were analyzed using GraphPad Prism software.

[3] = target: T1, tScCBS; test: UV-Vis absorption titration of tScCBS (dissociation constants); format: binding; settings: tScCBS 1 mg/mL, pH 8.5; decrease in absorbance at 412 nm (AOAA), increase at 460 nm (Ser) or 440 nm (Cys); 3 min incubation; read-out: Dissociation constant Kd (UV-Vis absorption)
Procedure: as §1, §2

[4] = target: T1, tScCBS; test: CBL-LDH coupled-coupled CBS assay, tScCBS; format: biochemical; settings: tScCBS; CBL-LDH coupled-coupled assay
Procedure: (§4) CBS coupled-coupled assay. CBS canonical activity utilizing Ser and Hcy was determined using cystathionine beta-lyase (CBL) and lactate-dehydrogenase (LDH) coupled-coupled assay as described previously with a few modifications. Native L-LDH from rabbit muscle was purchased from Sigma (catalog no. L2500) and recombinant CBL was purchased from Creative Enzymes (catalog no. NATE-1146). In a final volume of 150 µL, the reaction mixture contained 50 mM Tris–HCl pH 8.9, 20 µM PLP, 500 µM NADH, 1.3 µM LDH, 0.1 µM CBL, 0–20 mM Ser (or 0–50 mM Cys) and 500 ng of tScCBS or HsCBS. Assays with HsCBS were carried out in the absence or presence of 500 µM CBS allosteric activator S-adenosylmethionine (SAM). The reaction was triggered by the addition of 2 mM Hcy and the oxidation of NADH to NAD^+ was followed by monitoring the decrease in absorbance at 340 nm over time (ε340 = 6220 M^−1.cm^−1). […] All measurements were performed in triplicates using Tecan Infinite 200 PRO microplate reader. Kinetic data were analyzed using GraphPad Prism software.

[5] = target: T2, HsCBS (Homo sapiens, UniProt P35520, DEL516-525); test: CBS H2S production assay (AzMC fluorometric), HsCBS; format: biochemical; settings: AzMC assay
T2 construct: purchased GenScript
T2 sequence (P35520 with tags, fused parts or gaps DEL516-525): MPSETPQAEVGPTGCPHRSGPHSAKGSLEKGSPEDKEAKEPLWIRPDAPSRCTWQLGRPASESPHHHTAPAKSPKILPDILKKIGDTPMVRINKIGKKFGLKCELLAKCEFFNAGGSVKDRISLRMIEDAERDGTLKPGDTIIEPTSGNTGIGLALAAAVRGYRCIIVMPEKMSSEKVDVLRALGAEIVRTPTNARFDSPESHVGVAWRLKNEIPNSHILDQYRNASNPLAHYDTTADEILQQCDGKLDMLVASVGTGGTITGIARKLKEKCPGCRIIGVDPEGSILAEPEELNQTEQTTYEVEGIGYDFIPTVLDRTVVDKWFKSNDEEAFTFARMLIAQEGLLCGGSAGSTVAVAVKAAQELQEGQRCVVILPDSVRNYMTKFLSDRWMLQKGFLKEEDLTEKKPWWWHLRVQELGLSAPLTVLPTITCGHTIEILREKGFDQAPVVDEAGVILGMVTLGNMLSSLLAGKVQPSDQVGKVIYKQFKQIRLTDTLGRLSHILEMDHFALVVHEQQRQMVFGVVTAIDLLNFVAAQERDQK
Procedure: as §3

[6] = target: T2, HsCBS; test: CBL-LDH coupled-coupled CBS assay, HsCBS; format: biochemical; settings: CBL-LDH coupled-coupled assay
Procedure: as §4

[7] = target: T1, tScCBS; test: Kinetics of AOAA binding to tScCBS and displacement by substrate, followed by absorption spectra; settings: in the presence of Cys, data not shown
Procedure: as §2
Fig. 2 Spectroscopic rescue of AOAA-inhibited tScCBS by Ser. A Changes in the absorption spectra of tScCBS upon addition of 20 µM AOAA (cyan lines) followed for 1 h. Subsequently, 1 mM Ser (gray lines) was added and spectral changes were followed for additional 1 h. B Representative kinetic fitting of AOAA binding to tScCBS followed at 412 nm. C Representative kinetic fitting of AOAA displacement from tScCBS by Ser by following changes at 370 nm and 460 nm. The kinetic parameters of the observed processes are shown as insets in panels B and C. Far-UV (D) and near-UV (E) CD spectra of tScCBS (black), tScCBS complexed with 20 µM AOAA (cyan) or 1 mM Ser (magenta) and tScCBS complexed with 20 µM AOAA followed by 1 h incubation with 1 mM Ser (green).

N[C@@H](CS)C(=O)O [Cys, cysteine]
Kd [1]: 48.9 ± 14.6 µM
Vmax [2]: 317.0 ± 24.1 µmol/h/mg
kcat [2]: 3.4 ± 0.3 s⁻¹
Kd [3]: ~58 µM and 57.3 µM
Vmax [4]: 161.5 ± 4.5 µmol/h/mg
kcat [4]: 1.7 ± 0.1 s⁻¹
Vmax ([5]; HsCBS + SAM): 113.3 ± 4.0 µmol/h/mg
kcat ([5]; HsCBS + SAM): 1.93 ± 0.06 s⁻¹
Vmax ([5]; HsCBS – SAM): 30.8 ± 1.9 µmol/h/mg
kcat ([5]; HsCBS – SAM): 0.52 ± 0.04 s⁻¹
Vmax ([6]; HsCBS + SAM): 97.2 ± 7.1 µmol/h/mg
kcat ([6]; HsCBS + SAM): 1.66 ± 0.03 s⁻¹
Vmax ([6]; HsCBS – SAM): 20.1 ± 1.7 µmol/h/mg
kcat ([6]; HsCBS – SAM): 0.34 ± 0.02 s⁻¹
Displacement of AOAA from the tScCBS active site [7]: did not occur
